Laboratory results published in patent US20150191469A1, “COMPOUNDS AND METHODS FOR TREATING HIV” (priority 2012, published 2015).
Where a name gives a salt, the structure may show the parent alone. Read-outs that look alike come from different tables or passages of the source. Blank lines part the entries; values can stand above or below the molecule they belong to.

Test system: HIV
Experiment: MT4 assay: antiviral HIV activity (cell protection, cell titer glo readout at 96 hours)
Format: cell-based
Conditions: read-out: HIV MT4 Assay IC50
How it was run: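 MT-4 cells infected with HIV, with inhibition readout by CellTiter-Glo luminescence at 96 h relative to no-compound control. Cytotoxicity measured in parallel under the same conditions. IC50 from a 10-point, 3-4-fold dilution series spanning >1000-fold, fitted with a four-parameter logistic equation.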

[1] = Human immunodeficiency virus 1, MT4, 96 h, MT4 cells, cell titer glo readout at 96 hours, 10 point dose response

Structure (SMILES): Cc1nc2c(cc(-c3ccnc(-c4ccc5c(cnn5C)c4)c3)n2C)c(-c2ccc3c(c2C)CCCO3)c1[C@H](OC(C)(C)C)C(=O)O (atropisomer, axis not shown; (M)) [Example 1, (2S)(M)-2-(tert-butoxy)-2-(1,6-dimethyl-2-(2-(1-methyl-1H-indazol-5-yl)pyridin-4-yl)-4-(5-methylchroman-6-yl)-1H-pyrrolo[2,3-b]pyridin-5-yl)acetic acid]
IC50 [1]: 1.7 nM

Structure (SMILES): Cc1nc2c(cc(-c3nc(N4CCN(C5CCOCC5)CC4)ns3)n2C)c(-c2cc(F)c3c(c2C)CCCO3)c1[C@H](OC(C)(C)C)C(=O)O (atropisomer, axis not shown; (M)) [Example 26, (2S)(M)-2-(tert-butoxy)-2-(4-(8-fluoro-5-methylchroman-6-yl)-1,6-dimethyl-2-(3-(4-(tetrahydro-2H-pyran-4-yl)piperazin-1-yl)-1,2,4-thiadiazol-5-yl)-1H-pyrrolo[2,3-b]pyridin-5-yl)acetic acid]
IC50 (MT4 cells, cell titer glo readout at 96 hours, 10 point dose response): 2.9 nM

Structure (SMILES): Cc1nc2c(cc(-c3nc(N4CCN(C5CCOCC5)CC4)no3)n2C)c(-c2cc(F)c3c(c2C)CCCO3)c1[C@H](OC(C)(C)C)C(=O)O (atropisomer, axis not shown; (M)) [Example 27, (2S)(M)-2-(tert-butoxy)-2-(4-(8-fluoro-5-methylchroman-6-yl)-1,6-dimethyl-2-(3-(4-(tetrahydro-2H-pyran-4-yl)piperazin-1-yl)-1,2,4-oxadiazol-5-yl)-1H-pyrrolo[2,3-b]pyridin-5-yl)acetic acid]
IC50 [1]: 4.6 nM

Structure (SMILES): Cc1nc2c(cc(-c3nnc(-c4ccc5c(cnn5C)c4)o3)n2C)c(-c2cc(F)c3c(c2C)CCCO3)c1[C@H](OC(C)(C)C)C(=O)O (atropisomer, axis not shown; (M)) [Example 28, (2S)(M)-2-(tert-butoxy)-2-(4-(8-fluoro-5-methylchroman-6-yl)-1,6-dimethyl-2-(5-(1-methyl-1H-indazol-5-yl)-1,3,4-oxadiazol-2-yl)-1H-pyrrolo[2,3-b]pyridin-5-yl)acetic acid]
IC50 [1]: 1.8 nM

Structure (SMILES): Cc1nc2c(cc3n2CCCC3)c(-c2cc(F)c3c(c2C)CCCO3)c1[C@H](OC(C)(C)C)C(=O)O (atropisomer, axis not shown; (M)) [Example 29, (2S)(M)-2-(tert-butoxy)-2-(4-(8-fluoro-5-methylchroman-6-yl)-2-methyl-6,7,8,9-tetrahydropyrido[3,2-b]indolizin-3-yl)acetic acid]
IC50 [1]: 13.8 nM

Structure (SMILES): Cc1nc2c(cc(-c3ccn(C4CN(C)C4)n3)n2C)c(-c2cc(F)c3c(c2C)CCCO3)c1[C@H](OC(C)(C)C)C(=O)O (atropisomer, axis not shown; (M)) [Example 129, (2S)(M)-2-(tert-butoxy)-2-(-4-(8-fluoro-5-methylchroman-6-yl)-1,6-dimethyl-2-(1-(1-methylazetidin-3-yl)-1H-pyrazol-3-yl)-1H-pyrrolo[2,3-b]pyridin-5-yl)acetic acid]
IC50 [1]: 45.2 nM

Structure (SMILES): Cc1nc2c(cc(-c3ccnc(C(=O)N4CCN(c5ccccc5)CC4)c3)n2C)c(-c2cc(F)c3c(c2C)CCCO3)c1[C@H](OC(C)(C)C)C(=O)O (atropisomer, axis not shown; (M)) [Example 145]
IC50 [1]: 45.3 nM

Structure (SMILES): Cc1nc2c(cc(-c3ccnc(C#Cc4cncn4C)c3)n2C)c(-c2cc(F)c3c(c2C)CCCO3)c1[C@H](OC(C)(C)C)C(=O)O (atropisomer, axis not shown; (M)) [Example 154, (2S)(M)-2-(tert-butoxy)-2-(-4-(8-fluoro-5-methylchroman-6-yl)-1,6-dimethyl-2-(2-((1-methyl-1H-imidazol-5-yl)ethynyl)pyridin-4-yl)-1H-pyrrolo[2,3-b]pyridin-5-yl)acetic acid]
IC50 [1]: 11 nM

Structure (SMILES): Cc1nc2c(cc(C(=O)N3CCN(C4CCCC4)CC3)n2C)c(-c2cc(F)c3c(c2C)CCCO3)c1[C@H](OC(C)(C)C)C(=O)O (atropisomer, axis not shown; (M)) [Example 161, (2S)(M)-2-(tert-butoxy)-2-(2-(4-cyclopentylpiperazine-1-carbonyl)-4-(8-fluoro-5-methylchroman-6-yl)-1,6-dimethyl-1H-pyrrolo[2,3-b]pyridin-5-yl)acetic acid ditrifluoroacetic acid salt]
IC50 (Human immunodeficiency virus 1, MT4, 96 h): 37.9 nM

Structure (SMILES): Cc1nc2c(cc(C(=S)N3CCC(c4ccccc4)CC3)n2C)c(-c2cc(F)c3c(c2C)CCCO3)c1[C@H](OC(C)(C)C)C(=O)O (atropisomer, axis not shown; (M)) [Example 281, (2S)(M)-2-(tert-butoxy)-2-(-4-(8-fluoro-5-methylchroman-6-yl)-1,6-dimethyl-2-(4-phenylpiperidine-1-carbonothioyl)-1H-pyrrolo[2,3-b]pyridin-5-yl)acetic acid]
IC50 [1]: 38.3 nM

Structure (SMILES): Cc1nc2c(cc(CCc3ccccc3)n2C)c(-c2cc(F)c3c(c2C)CCCO3)c1[C@H](OC(C)(C)C)C(=O)O (atropisomer, axis not shown; (M)) [Example 282, (2S)(M)-2-(tert-butoxy)-2-(-4-(8-fluoro-5-methylchroman-6-yl)-1,6-dimethyl-2-phenethyl-1H-pyrrolo[2,3-b]pyridin-5-yl)acetic acid]
IC50 [1]: 56.8 nM

Structure (SMILES): Cc1nc2c(cc(CN3CCCCC3)n2C)c(-c2cc(F)c3c(c2C)CCCO3)c1[C@H](OC(C)(C)C)C(=O)O (atropisomer, axis not shown; (M)) [Example 288, (2S)(M)-2-(tert-butoxy)-2-(-4-(8-fluoro-5-methylchroman-6-yl)-1,6-dimethyl-2-(piperidin-1-ylmethyl)-1H-pyrrolo[2,3-b]pyridin-5-yl)acetic acid]
IC50 [1]: 250 nM

Structure (SMILES): Cc1nc2c(cc(CCC(=O)NCc3ccc(F)cc3)n2C)c(-c2cc(F)c3c(c2C)CCCO3)c1[C@H](OC(C)(C)C)C(=O)O (atropisomer, axis not shown; (M)) [Example 297, (2S)(M) 2-(tert-butoxy)-2-((R)-4-(8-fluoro-5-methylchroman-6-yl)-2-(3-((4-fluorobenzyl)amino)-3-oxopropyl)-1,6-dimethyl-1H-pyrrolo[2,3-b]pyridin-5-yl)acetic acid]
IC50 [1]: 130 nM

Structure (SMILES): Cc1nc2c(cc(-c3nnc(N4CCN(C5CCOCC5)CC4)o3)n2C)c(-c2cc(F)c3c(c2C)CCCO3)c1[C@H](OC(C)(C)C)C(=O)O (atropisomer, axis not shown; (M)) [Example 300, (2S)(M)-2-(tert-butoxy)-2-(-4-(8-fluoro-5-methylchroman-6-yl)-1,6-dimethyl-2-(5-(4-(tetrahydro-2H-pyran-4-yl)piperazin-1-yl)-1,3,4-oxadiazol-2-yl)-1H-pyrrolo[2,3-b]pyridin-5-yl)acetic acid]
IC50 [1]: 10.4 nM

Structure (SMILES): Cc1nc2c(cc(-c3nc(-c4ccc5c(cnn5C)c4)no3)n2C)c(-c2cc(F)c3c(c2C)CCCO3)c1[C@H](OC(C)(C)C)C(=O)O (atropisomer, axis not shown; (M)) [Example 354, (2S)(M)-2-(tert-butoxy)-2-(4-(8-fluoro-5-methylchroman-6-yl)-1,6-dimethyl-2-(3-(1-methyl-1H-indazol-5-yl)-1,2,4-oxadiazol-5-yl)-1H-pyrrolo[2,3-b]pyridin-5-yl)acetic acid]
IC50 [1]: 5 nM

Structure (SMILES): Cc1nc2c(cc(-c3nc(-c4ccc5c(cnn5C)c4)ns3)n2C)c(-c2cc(F)c3c(c2C)CCCO3)c1[C@H](OC(C)(C)C)C(=O)O (atropisomer, axis not shown; (M)) [Example 355, (2S)(M)-2-(tert-butoxy)-2-(-4-(8-fluoro-5-methylchroman-6-yl)-1,6-dimethyl-2-(3-(1-methyl-1H-indazol-5-yl)-1,2,4-thiadiazol-5-yl)-1H-pyrrolo[2,3-b]pyridin-5-yl)acetic acid]
IC50 [1]: 4.7 nM

Structure (SMILES): Cc1nc2c(cc(-c3nnc(-c4ccc5c(cnn5C)c4)s3)n2C)c(-c2cc(F)c3c(c2C)CCCO3)c1[C@H](OC(C)(C)C)C(=O)O (atropisomer, axis not shown; (M)) [Example 356, (2S)(M)-2-(tert-butoxy)-2-(-4-(8-fluoro-5-methylchroman-6-yl)-1,6-dimethyl-2-(5-(1-methyl-1H-indazol-5-yl)-1,3,4-thiadiazol-2-yl)-1H-pyrrolo[2,3-b]pyridin-5-yl)acetic acid]
IC50 [1]: 9.8 nM

Structure (SMILES): Cc1nc2c(cc(-c3nsc(-c4ccc5c(cnn5C)c4)n3)n2C)c(-c2cc(F)c3c(c2C)CCCO3)c1[C@H](OC(C)(C)C)C(=O)O (atropisomer, axis not shown; (M)) [Example 357, (2S)(M)-2-(tert-butoxy)-2-(-4-(8-fluoro-5-methylchroman-6-yl)-1,6-dimethyl-2-(5-(1-methyl-1H-indazol-5-yl)-1,2,4-thiadiazol-3-yl)-1H-pyrrolo[2,3-b]pyridin-5-yl)acetic acid]
IC50 [1]: 4 nM

IC50 [1]: 17.6 nM
Structure (SMILES): Cc1nc2c(cc(-c3nccc(N4CCN(C5CCOCC5)CC4)n3)n2C)c(-c2cc(F)c3c(c2C)CCCO3)c1[C@H](OC(C)(C)C)C(=O)O (atropisomer, axis not shown; (M)) [Example 358]

Structure (SMILES): Cc1nc2c(cc(-c3nc(N4C[C@@H](C)O[C@@H](C)C4)no3)n2C)c(-c2cc(F)c3c(c2C)CCCO3)c1[C@H](OC(C)(C)C)C(=O)O (atropisomer, axis not shown; (M)) [Example 410, (2S)(M)-2-(tert-butoxy)-2-(-2-(3-((2S,6R)-2,6-dimethylmorpholino)-1,2,4-oxadiazol-5-yl)-4-(8-fluoro-5-methylchroman-6-yl)-1,6-dimethyl-1H-pyrrolo[2,3-b]pyridin-5-yl)acetic acid]
IC50 [1]: 3.1 nM

Structure (SMILES): Cc1nc2c(cc(-c3noc(N4CCC(C)CC4)n3)n2C)c(-c2cc(F)c3c(c2C)CCCO3)c1[C@H](OC(C)(C)C)C(=O)O (atropisomer, axis not shown; (M)) [Example 411, (2S)(M)-2-(tert-butoxy)-2-(-4-(8-fluoro-5-methylchroman-6-yl)-1,6-dimethyl-2-(5-(4-methylpiperidin-1-yl)-1,2,4-oxadiazol-3-yl)-1H-pyrrolo[2,3-b]pyridin-5-yl)acetic acid]
IC50 [1]: 7.6 nM
